For one assay, the target named is T1, PI3K delta (Homo sapiens, UniProt O00329).
T1 construct: for the full-length p110-d subunit are generated and fused by overlapping PCR; p85(iSH2) fusion partner (see partner chain) (N); His tag (C); made in house; host or cells: baculovirus; Tn5 (Trichoplusia ni) or TiniPro insect cells
Nature of the assay: PI3K delta kinase assay (Kinase-Glo luminescence). Type of assay: biochemical. The procedure, abridged: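 ATP depletion was measured by Kinase-Glo luminescence after a 60-minute room-temperature reaction containing 1 μM ATP, 10 μg/mL PI and 10 nM His-tagged p85(iSH2)-linker-p110δ (BV-1060). Buffer: Tris pH 7.5, 3 mM MgCl2, 50 mM NaCl, 0.05% CHAPS, 1 mM DTT. IC50 values came from four-parameter fits over eight concentrations.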
In general terms: In Kinase-Glo more light means more ATP remaining.

The target of the next assay is T2, mTOR (Homo sapiens, UniProt P42345).
T2 construct: purchased Invitrogen Corporation (Carlsbad/CA, USA) PV4753
T2 sequence (P42345 1360-2549 limits assumed): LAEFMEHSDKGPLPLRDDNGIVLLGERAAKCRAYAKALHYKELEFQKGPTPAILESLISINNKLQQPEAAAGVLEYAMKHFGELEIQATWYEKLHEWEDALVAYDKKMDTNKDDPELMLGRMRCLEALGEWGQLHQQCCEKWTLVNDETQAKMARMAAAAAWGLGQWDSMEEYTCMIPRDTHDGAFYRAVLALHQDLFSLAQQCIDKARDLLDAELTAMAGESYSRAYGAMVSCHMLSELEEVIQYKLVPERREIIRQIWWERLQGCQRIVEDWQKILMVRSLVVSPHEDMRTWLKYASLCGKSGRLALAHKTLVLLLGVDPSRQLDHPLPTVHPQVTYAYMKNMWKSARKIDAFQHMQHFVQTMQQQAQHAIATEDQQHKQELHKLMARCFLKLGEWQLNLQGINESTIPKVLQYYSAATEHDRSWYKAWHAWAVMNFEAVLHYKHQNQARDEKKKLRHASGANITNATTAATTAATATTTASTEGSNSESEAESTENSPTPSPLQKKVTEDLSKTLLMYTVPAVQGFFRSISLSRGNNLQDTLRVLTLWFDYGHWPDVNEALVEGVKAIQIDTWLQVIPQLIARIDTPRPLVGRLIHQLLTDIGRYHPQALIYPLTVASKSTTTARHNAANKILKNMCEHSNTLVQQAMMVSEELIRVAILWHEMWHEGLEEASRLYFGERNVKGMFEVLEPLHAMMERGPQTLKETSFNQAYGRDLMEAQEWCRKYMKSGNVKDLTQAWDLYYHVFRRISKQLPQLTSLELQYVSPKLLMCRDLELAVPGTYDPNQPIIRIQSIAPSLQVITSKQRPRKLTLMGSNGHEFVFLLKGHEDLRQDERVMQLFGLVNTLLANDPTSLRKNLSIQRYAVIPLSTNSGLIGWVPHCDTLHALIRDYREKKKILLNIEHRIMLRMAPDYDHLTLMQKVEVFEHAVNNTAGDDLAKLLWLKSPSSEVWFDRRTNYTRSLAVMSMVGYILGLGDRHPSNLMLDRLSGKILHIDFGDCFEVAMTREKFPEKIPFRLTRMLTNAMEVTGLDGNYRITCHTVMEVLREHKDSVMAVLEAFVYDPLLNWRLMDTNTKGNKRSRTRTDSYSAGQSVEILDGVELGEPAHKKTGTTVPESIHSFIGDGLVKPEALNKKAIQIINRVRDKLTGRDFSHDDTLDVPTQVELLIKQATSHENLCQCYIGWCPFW
The experiment in a line: Biochemical assay for m-TOR by TR-FRET. The following applies: 8 μM ATP, 400 nM GFP-4EBP1, 0.5 nM mTOR. Put shortly: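 Enzyme 0.5 nM, GFP-4EBP1 400 nM, ATP 8 μM (all final); 50 mM HEPES pH 7.5, 10 mM MnCl2, 1 mM DTT; rt. Detection: Tb-α-p4EBP1 [pT46] 0.5 nM in EDTA, TR-FRET, 15 min. Reference compound on every plate, 16-point duplicate dilutions.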
On the technique in general: In TR-FRET formats the signal depends on donor and acceptor labels being close together.

Another assay deals with T3, PI3K alpha (Homo sapiens, UniProt P42336).
T3 construct: p85(iSH2) fusion partner (see partner chain) (N); His tag (C); made in house; host or cells: baculovirus; Tn5 (Trichoplusia ni) or TiniPro insect cells
T3 sequence (P42336 with tags, fused parts or gaps limits assumed): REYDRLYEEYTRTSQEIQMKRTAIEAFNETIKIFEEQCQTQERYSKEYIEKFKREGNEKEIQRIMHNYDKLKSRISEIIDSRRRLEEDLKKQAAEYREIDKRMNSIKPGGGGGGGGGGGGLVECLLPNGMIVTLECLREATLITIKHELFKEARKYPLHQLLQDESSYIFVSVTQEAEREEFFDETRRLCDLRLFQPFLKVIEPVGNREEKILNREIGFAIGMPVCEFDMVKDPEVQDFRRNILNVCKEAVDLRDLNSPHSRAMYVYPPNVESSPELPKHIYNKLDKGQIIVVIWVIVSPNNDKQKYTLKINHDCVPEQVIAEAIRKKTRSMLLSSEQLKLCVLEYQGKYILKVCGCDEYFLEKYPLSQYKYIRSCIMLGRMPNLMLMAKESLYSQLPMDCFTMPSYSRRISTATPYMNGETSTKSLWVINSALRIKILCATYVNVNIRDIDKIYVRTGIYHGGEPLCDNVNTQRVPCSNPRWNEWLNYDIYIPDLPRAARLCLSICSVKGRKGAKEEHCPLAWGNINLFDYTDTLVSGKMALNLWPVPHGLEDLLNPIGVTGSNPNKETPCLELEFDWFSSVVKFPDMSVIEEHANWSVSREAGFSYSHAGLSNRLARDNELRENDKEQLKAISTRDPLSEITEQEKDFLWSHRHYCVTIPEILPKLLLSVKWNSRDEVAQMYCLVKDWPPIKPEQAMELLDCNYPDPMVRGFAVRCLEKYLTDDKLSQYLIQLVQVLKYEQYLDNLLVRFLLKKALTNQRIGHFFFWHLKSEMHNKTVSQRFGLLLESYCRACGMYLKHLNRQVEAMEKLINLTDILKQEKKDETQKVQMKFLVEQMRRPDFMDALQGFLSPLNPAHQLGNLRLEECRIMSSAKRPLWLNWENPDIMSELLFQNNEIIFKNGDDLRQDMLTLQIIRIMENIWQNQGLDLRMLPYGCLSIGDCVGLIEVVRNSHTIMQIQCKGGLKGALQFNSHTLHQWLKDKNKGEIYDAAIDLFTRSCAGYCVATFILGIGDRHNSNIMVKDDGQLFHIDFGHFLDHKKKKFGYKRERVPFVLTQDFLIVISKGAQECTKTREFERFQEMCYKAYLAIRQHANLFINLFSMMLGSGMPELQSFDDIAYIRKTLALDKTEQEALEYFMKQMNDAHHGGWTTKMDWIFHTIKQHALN
Nature of the assay: PI3K alpha kinase assay (Kinase-Glo luminescence). It is filed as biochemical. Put shortly:
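IC50 is taken from a four-parameter logistic fit of 8-point dilutions, with Kinase-Glo luminescence reporting residual ATP. Reactions ran 60 min at room temperature in TRIS pH 7.5 buffer with MgCl2, NaCl, CHAPS and DTT. Final levels were 10 nM enzyme, 1 μM ATP and 10 μg/mL PI.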

Assay [1] concerns S6 Ribosomal Protein phosphorylation Ser235/236 in TSC1 null mouse embryo fibroblast (MEF) cells. Nature of the assay: Reverse protein array assay, S6 Ribosomal Protein phosphorylation Ser235/236 in TSC1 null MEF cells. It is filed as cell-based. The following applies: 1 h, pS6 ribosomal protein Ser235/236, 60 minutes incubation, read-out: p-S6 IC50. Put shortly:
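TSC1−/− MEFs, seeded and held ≥20 h at 37 °C/5% CO2, were exposed to 8-step serial compound dilutions (0.02% DMSO final; DMSO vehicle control) for 60 min at 37 °C. Cells were then lysed on ice for 10 min and lysates spotted onto reverse protein array chips.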

These results are taken from patent US20140005163A1 (NOVARTIS AG, priority 2010, published 2014).

T1 sequence (O00329 with tags, fused parts or gaps limits assumed): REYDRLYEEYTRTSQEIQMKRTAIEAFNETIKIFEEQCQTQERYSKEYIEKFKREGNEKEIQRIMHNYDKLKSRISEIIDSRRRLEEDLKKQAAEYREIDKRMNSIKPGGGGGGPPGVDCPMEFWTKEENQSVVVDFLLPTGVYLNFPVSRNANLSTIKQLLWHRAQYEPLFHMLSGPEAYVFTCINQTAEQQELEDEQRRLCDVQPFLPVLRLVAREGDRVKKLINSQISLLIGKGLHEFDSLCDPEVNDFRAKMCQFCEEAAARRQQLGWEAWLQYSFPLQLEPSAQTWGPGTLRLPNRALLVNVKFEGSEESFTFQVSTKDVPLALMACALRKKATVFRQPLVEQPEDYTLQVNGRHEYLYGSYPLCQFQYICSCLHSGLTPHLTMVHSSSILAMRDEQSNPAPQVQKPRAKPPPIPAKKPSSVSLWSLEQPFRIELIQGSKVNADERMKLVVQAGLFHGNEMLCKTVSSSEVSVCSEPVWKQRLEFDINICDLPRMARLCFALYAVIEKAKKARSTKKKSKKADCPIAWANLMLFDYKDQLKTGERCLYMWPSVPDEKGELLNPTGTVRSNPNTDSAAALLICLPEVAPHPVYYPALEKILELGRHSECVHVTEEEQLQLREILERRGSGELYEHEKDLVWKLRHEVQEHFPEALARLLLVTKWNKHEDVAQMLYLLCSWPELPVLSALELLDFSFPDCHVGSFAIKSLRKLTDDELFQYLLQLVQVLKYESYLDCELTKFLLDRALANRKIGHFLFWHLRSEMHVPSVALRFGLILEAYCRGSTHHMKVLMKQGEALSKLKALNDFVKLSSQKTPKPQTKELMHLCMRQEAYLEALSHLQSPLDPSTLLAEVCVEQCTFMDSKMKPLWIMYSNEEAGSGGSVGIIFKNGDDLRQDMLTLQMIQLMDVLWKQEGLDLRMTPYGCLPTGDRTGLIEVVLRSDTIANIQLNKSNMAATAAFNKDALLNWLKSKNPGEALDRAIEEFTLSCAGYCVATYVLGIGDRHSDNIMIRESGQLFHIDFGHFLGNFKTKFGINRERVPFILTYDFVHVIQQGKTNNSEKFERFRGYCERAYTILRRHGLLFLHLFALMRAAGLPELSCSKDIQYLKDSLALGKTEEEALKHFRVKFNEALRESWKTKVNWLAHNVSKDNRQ

The IC50 is the midpoint of a concentration-inhibition curve. Take `COc1ccc(-c2ccc3ncc4c(c3c2)n(-c2cc(C)nn2C)c(=O)n4C)cn1` [Example 2.3, 1-(2,5-Dimethyl-2H-pyrazol-3-yl)-8-(6-methoxy-pyridin-3-yl)-3-methyl-1,3-dihydro-imidazo[4,5-c]quinolin-2-one]: the figures for the IC50 on PI3K delta, at mTOR and on PI3K alpha were 0.03 µM, 0.096 µM and 0.03 µM, respectively.

Turning to `CCOc1ccc(-c2ccc3ncc4c(c3c2)n(-c2ccnn2CC)c(=O)n4C)cn1` [Example 3.4, 8-(6-Ethoxy-pyridin-3-yl)-1-(2-ethyl-2H-pyrazol-3-yl)-3-methyl-1,3-dihydro-imidazo[4,5-c]quinolin-2-one], the IC50 came to 0.283 µM on PI3K delta, 0.161 µM on mTOR, 0.217 µM on PI3K alpha and 0.199 µM in assay [1].

Consider `CCn1cc(-n2c(=O)n(C)c3cnc4ccc(-c5cnc(N(C)C)nc5)cc4c32)c(C)n1` [Example 6.4, 8-(2-Dimethylamino-pyrimidin-5-yl)-1-(1-ethyl-3-methyl-1H-pyrazol-4-yl)-3-methyl-1,3-dihydro-imidazo[4,5-c]quinolin-2-one], for which the IC50 at PI3K delta was 0.044 µM; at mTOR, 0.033 µM; at PI3K alpha it was 0.06 µM; in assay [1] it was 0.01 µM.

On to `Cc1nn(CC(=O)N(C)C)cc1-n1c(=O)n(C)c2cnc3ccc(-c4ccccc4)cc3c21` [Example 37.3, N,N-Dimethyl-2-[3-methyl-4-(3-methyl-2-oxo-8-phenyl-2,3-dihydro-imidazo[4,5-c]quinolin-1-yl)-pyrazol-1-yl]-acetamide], for which the results for the IC50 (on mTOR; at PI3K alpha; in assay [1]) were 0.019 µM, 0.071 µM and 0.015 µM, respectively.

For `CCN(C)C(=O)Cn1cc(-n2c(=O)n(C)c3cnc4ccc(-c5cncc(OC(C)C)c5)cc4c32)c(C)n1` [Example 58.5, N-Ethyl-2-{4-[8-(5-isopropoxy-pyridin-3-yl)-3-methyl-2-oxo-2,3-dihydro-imidazo[4,5-c]quinolin-1-yl]-3-methyl-pyrazol-1-yl}-N-methyl-acetamide], the IC50 at PI3K delta was 0.039 µM; on mTOR, 0.023 µM; at PI3K alpha it was 0.007 µM; in assay [1], 0.003 µM.

As to `Cc1nn(CC(=O)N(C)C)c(C)c1-n1c(=O)n(C)c2cnc3ccc(-c4cncc(OC5CCC5)c4)cc3c21` [Example 60.2, 2-{4-[8-(5-Cyclobutoxy-pyridin-3-yl)-3-methyl-2-oxo-2,3-dihydro-imidazo[4,5-c]quinolin-1-yl]-3,5-dimethyl-pyrazol-1-yl}-N,N-dimethyl-acetamide], the IC50 at PI3K delta amounted to 0.694 µM; at mTOR, 0.703 µM; at PI3K alpha it was 0.315 µM; in assay [1], 0.011 µM.

As to `CCN(C)C(=O)Cn1cc(-n2c(=O)n(C)c3cnc4ccc(-c5ccccc5)cc4c32)c(C)n1` [Example 135, N-Ethyl-N-methyl-2-[3-methyl-4-(3-methyl-2-oxo-8-phenyl-2,3-dihydro-imidazo[4,5-c]quinolin-1-yl)-pyrazol-1-yl]-acetamide], the IC50 at mTOR came out at 0.14 µM; at PI3K alpha, 0.076 µM; in assay [1], 0.006 µM.

As to `CCN(C)C(=O)Cn1cc(-n2c(=O)n(C)c3cnc4ccc(-c5cnc(N6CCCC6)nc5)cc4c32)c(C)n1` [Example 140.1, N-Ethyl-N-methyl-2-{3-methyl-4-[3-methyl-2-oxo-8-(2-pyrrolidin-1-yl-pyrimidin-5-yl)-2,3-dihydro-imidazo[4,5-c]quinolin-1-yl]-pyrazol-1-yl}-acetamide], the IC50 at mTOR worked out at 0.036 µM; on PI3K alpha, 0.168 µM; in assay [1], 0.005 µM.

With `CCn1cc(-n2c(=O)n(C)c3cnc4ccc(-c5cnc(NC)nc5OC)cc4c32)c(C)n1` [Example 236, 1-(1-Ethyl-3-methyl-1H-pyrazol-4-yl)-8-(4-methoxy-2-methylamino-pyrimidin-5-yl)-3-methyl-1,3-dihydro-imidazo[4,5-c]quinolin-2-one], the figures for the IC50 on PI3K delta, on mTOR and on PI3K alpha were 0.007 µM, less than 0.003 µM and 0.015 µM, respectively.
